The values that follow come from patent US9795677B2, “Method for reducing damage caused by free radicals” (Original BioMedicals Co., Ltd, priority 2012, dated 2017).

Data set [1] deals with mouse embryonic liver cells (BNLCL.2). Put plainly: Comet Assay of UV-irradiated cells (DNA damage). The data set is classed as cell-based. The following applies: BNLCL.2 cells, UVB 100 J·m-2; treatment given 30 minutes or 2 hr before UV irradiation; API and FeP 40 folds, FePA 20 folds dilution with PBS. On the procedure:
UV irradiation of the cells was used in this experiment to simulate the effects of radiation on normal cells, and the results were evaluated by Comet Assay. Comet Assay is a fast, sensitive and convenient method for examining DNA damage and is widely used in studying DNA damage caused by radiation, examining DNA crosslink, evaluating genotoxicity of drugs and identifying cell apoptosis, etc. […]
The mouse embryonic liver cells (BNLCL.2) were inoculated onto a 35 mm culture dish at the density of 3*10^5 cell/mL and cultured for at least 20 hours before subjected to the test. […] The treated cells were then collected with a scraper, counted, and centrifuged at 1,200 rpm for 5 minutes. […]
The bottle containing LM agarose was placed in 95° C. water for 5 minutes with loosed cap and then transferred to a 37° C. water bath for at least 20 minutes. […] The resulting images were analyzed using the epifluorescence microscope (the maximum excitation and emission wavelength of SYBR®Green I are 494 nm and 521 nm, respectively.) The fluorescence filter was also adjusted accordingly for efficient lighting) 200×.

For data set [2] the following is noted: cited from earlier work.
The subject of a further data set is NMRI mice. Put plainly: Acute radiation protection in irradiated mice (WBC number). The class given is in vivo, mouse. The following applies: 8Gy; amifostine 6.25 mg/kg i.v. 30 min before irradiation; 30 days after treatment. On the procedure:
Efficacy Result: In animal study, 30-day old NMRI mice weighing 20 to 30 g were tested for acute radiation protection. For radiation control group, mice were given 1, 4, and 8 Gy irradiation in 10 minutes, and for the standard treatment group, FDA-approved amifostine (6.25 mg/kg) was injected intravenously, and 30 minutes later the animals were given 8 Gy irradiation in 10 minutes. The 30 mins duration design is based on the short half-life of amifostine. A-01 indicates FePA with a formulation ratio of PEG-b-PGA:FeCl2.4H2O:amifostine=4:1:1 (w:w:w). The animals in the test group A-01 were administered intravenously with 37.5 mg/kg A-01 (containing the same amount of amifostine as used in the standard treatment group), and 120 minutes post injection, the animals were given 8 Gy radiation in 10 minutes. WBC number and survival rates were analyzed 30 days after treatment.

For the compound `NCCCNCCSP(=O)(O)O` [Amifostine], the “average percentage of damaged DNA in the tail of the Comet (% TDNA) compared with the positive control group (UV)” value in data set [1] was “significantly reduced”. In addition, in data set [2] (6 minutes after i.v. injection), the “amifostine remaining after i.v. injection” value is on record as 10%. Further, in data set [2] (patients), the distribution half-life entry is “less than 1 minute” and the elimination half-life is 8 min. Further, the WBC in the data set with NMRI mice is recorded as 3.04-3.80 1000/cm^3.
